The text below walks through data of US3971779A, “7-[2-(5-Amino-1,3,4-thiadiazol-2-ylthio)acetamido]cephalosporins” (American Home Products Corporation, priority 1975, dated 1976).

For assay [1], the system named is Acinetobacter calcoaceticus 9957. Briefly: agar serial dilution MIC. As to conditions: Example 4, read-out: MIC. Format: cell-based. How it is done:
(§1) A stock solution of 7-[2-(4,5-dihydro-5-imino-1,3,4-thiadiazol-2-ylthio)acetamido]cephalosporanic acid as the hydrobromic acid addition salt containing 2,500 μg. of the active moiety is prepared in phosphate buffer. Two fold serial dilutions are prepared with phosphate buffer. One milliliter (ml.) quantities of each dilution are incorporated in 9 ml. seen agar in sterile Petri plates. The hardened surface is innoculated with test organisms using a Steers replicating device. The plates are incubated at 35° C. for 18 hours.
(§2) The test organisms are Bacillus subtilis (BA SU) 6633; Staphylococcus aureus (ST AU) 6538P, Smith CHP, and 3-180; Mycobacterium smegmatis (MY SM) 10143; Neisseria catarrhalis (NE CA) 8193; Pseudonomas aeruginosa (PS AE) 10145; Escherichia coli (ES CO) 9637, and 920; Escherichia intermedia (ES IN) 65-1; Salmonella paratyphi (SA PA) 11737; Enterobacter aerogenes (EN AE) 13048; Klebsiella pneumoniae (KL PN) 10031; Bordetella bronchiseptica (BO BR) 4617; Proteus vulgaris (PR VU) 6896; and Herellea species (HE SP) 9955. These organisms are grown for 18 hours in Brain heart infusion at 35° C. Prior to use the cultures are diluted 10 fold with the infusion, except in the case of Mycobacterium. The latter is grown in Emerson's broth for 5 days at 28° C. in shaker flasks and used undiluted.
(§3) Following the procedure of Example 2 but substituting the organisms listed below the same preparation of 7-[2-(4,5-dihydro-5-imino-1,3,4-thiadiazol-2-ylthio)acetamido]cephalosporanic acid (Compound A) as used in Example 3, a third sample of the same compound, prepared as described in Example 1 (Compound B) and 7-[2-(5-acetamido-1,3,4-thiadiazol-2-ylthio)acetamido]cephalosporanic acid (Compound C) are tested to obtain the results shown: […]

The subject of another assay is Arizona arizonae 13314. Briefly: agar serial dilution MIC. Format: cell-based. The conditions noted are these: Salmonella enterica, 13314, Example 4. Here is the method: as §1, §2, §3
Assay [2] has as its system Citrobacter diversus 27156. Briefly: agar serial dilution MIC. Format: cell-based. As to conditions: Citrobacter koseri, Example 4. How it is done: as §1, §2, §3
In assay [3] the test system is Citrobacter freundii 8090. Briefly: agar serial dilution MIC. As to conditions: Example 4. Format: cell-based. Here is the method: as §1, §2, §3
In a further assay the test system is Edwardsiella tarda 15947. Briefly: agar serial dilution MIC. Format: cell-based. As to conditions: Edwardsiella tarda, 15947; Example 4; read-out: MIC. How it is done: as §1, §2, §3
Assay [4] has as its system Enterobacter agglomerans 27155. Briefly: agar serial dilution MIC. Format: cell-based. As to conditions: Pantoea agglomerans, 27155; Example 4; read-out: MIC. How it is done: as §1, §2, §3
Assay [5] has as its system Enterobacter cloacae 13047. Briefly: agar serial dilution MIC. Format: cell-based. The conditions noted are these: Example 4. Here is the method: as §1, §2, §3
In assay [6] the test system is Enterobacter havniae 11604. Briefly: agar serial dilution MIC. Format: cell-based. As to conditions: Example 4. How it is done:
as §1, §2, §3

For a further assay, the system named is Klebsiella ozaenae 11296. Briefly: agar serial dilution MIC. The conditions noted are these: Example 4, read-out: MIC. Format: cell-based. How it is done:
as §1, §2, §3

Assay [7] relates to Klebsiella pneumoniae 13883. Briefly: agar serial dilution MIC. Format: cell-based. As to conditions: Klebsiella pneumoniae, 13883, Example 4. Here is the method:
as §1, §2, §3

Assay [8] concerns Klebsiella rhinoscleromatis 13884. Briefly: agar serial dilution MIC. Format: cell-based. The conditions noted are these: Klebsiella pneumoniae, Example 4. How it is done:
as §1, §2, §3

A further assay has as its system Proteus mirabilis 9921. Briefly: agar serial dilution MIC. As to conditions: Example 4. Format: cell-based. How it is done:
as §1, §2, §3

The subject of assay [9] is Providencia alcalifaciens 9886. Briefly: agar serial dilution MIC. Format: cell-based. The conditions noted are these: Example 4. Here is the method:
as §1, §2, §3

The subject of assay [10] is Providencia stuartii 25825. Briefly: agar serial dilution MIC. Format: cell-based. As to conditions: Example 4. How it is done: as §1, §2, §3
The test system of assay [11] is Salmonella cholera-suis 13312. Briefly: agar serial dilution MIC. Format: cell-based. Here is the method: as §1, §2, §3
In assay [12] the test system is Salmonella enteritidis 13076. Briefly: agar serial dilution MIC. Format: cell-based. The conditions noted are these: Salmonella enterica, Example 4. How it is done:
as §1, §2, §3

Another assay relates to Salmonella typhi 19430. Briefly: agar serial dilution MIC. Format: cell-based. The conditions noted are these: Salmonella enterica. How it is done: as §1, §2, §3
Assay [13] concerns Serratia liquefaciens 27592. Briefly: agar serial dilution MIC. Format: cell-based. As to conditions: Example 4. How it is done:
as §1, §2, §3

Assay [14] deals with Serratia marcescens 13880. Briefly: agar serial dilution MIC. Format: cell-based. As to conditions: Example 4. How it is done:
as §1, §2, §3

Another assay concerns Serratia rubidae 27593. Briefly: agar serial dilution MIC. Format: cell-based. The conditions noted are these: Example 4. Here is the method:
as §1, §2, §3

Another assay deals with Shigella boydii 9207. Briefly: agar serial dilution MIC. As to conditions: Example 4. Format: cell-based. Here is the method: as §1, §2, §3
In another assay the test system is Shigella flexneri 12025. Briefly: agar serial dilution MIC. Format: cell-based. The conditions noted are these: Shigella flexneri, 12025, Example 4; read-out: MIC. Here is the method: as §1, §2, §3
A further assay has as its system Shigella sonnei 11060. Briefly: agar serial dilution MIC. Format: cell-based. The conditions noted are these: Example 4. Here is the method: as §1, §2, §3
Assay [15] deals with Staphylococcus aureaus CHP. Briefly: mice infected intraperitoneally, single dose six hours post-infection, deaths and CD50. Format: in vivo. As to conditions: for ED50: Staphylococcus. Here is the method:
Mice are infected intraperitoneally with a standardized suspension of Staphylococcus aureaus CHP in 5% gastric mucin. The animals are randomized. Six hours post-infection a single dose of the compound indicated is administered by the route indicated. The animals are observed for a 30 day period and deaths are recorded daily. The CD50 for 14 and 30 days as determined by the method of Reed and Muench, American Journal of Hygiene (1938), for each compound is tabulated:
7-[2-(5-Acetylamino-1,3,4-thiadiazol-2-ylthio)acetamido]cephalosporanic acid is tested as described in Example 5.

Where [16] appears, read: sc, 336 h, subcutaneous, 14 Days, single dose, mice.
Where [17] appears, read: sc, 720 h, subcutaneous, 30 Days, single dose, mice.
The mark [18] stands for this setting: subcutaneous, 50 mg/kg., 14 Days.
Where [19] appears, read: subcutaneous, 50 mg/kg., 30 Days.
[20] abbreviates: subcutaneous, 100 mg/kg., 14 Days.
[21] abbreviates: subcutaneous, 100 mg/kg., 30 Days.
[22] abbreviates: subcutaneous, 200 mg/kg., 14 Days.
Where [23] appears, read: subcutaneous, 200 mg/kg., 30 Days.
Where [24] appears, read: subcutaneous, 400 mg/kg., 14 Days.
Where [25] appears, read: subcutaneous, 400 mg/kg., 30 Days.
Where [26] appears, read: subcutaneous, 14 Days, single dose, mice, 20160 min.

≈ marks a conversion by molar mass, not a printed value. Where “and” joins values, the source holds several entries; their conditions need not be identical. Identical values can stand only once. Some results are limits rather than exact numbers.

`CC(=O)Nc1nnc(SCC(=O)NC2C(=O)N3C(C(=O)O)=C(COC(C)=O)CSC23)s1` (stereo not drawn) [Compound C, 7-[2-(5-acetamido-1,3,4-thiadiazol-2-ylthio)acetamido]cephalosporanic acid, reference compound]: the MIC in assay [1] is 250 µg/mL (≈ 513 µM); in the assay on Arizona arizonae 13314, 31.3 µg/mL (≈ 64.2 µM); in assay [2], 15.6 µg/mL (≈ 32 µM); in assay [3] it was greater than 250 µg/mL; with Edwardsiella tarda 15947, 7.81 µg/mL (≈ 16 µM); in [4], 7.81 µg/mL (≈ 16 µM). The MIC was greater than 250 µg/mL in assay [5]; 250 µg/mL (≈ 513 µM) in assay [6]; 7.81 µg/mL (≈ 16 µM) with Klebsiella ozaenae 11296; 62.5 µg/mL (≈ 128 µM) in assay [7]; greater than 250 µg/mL in [8]; 15.6 µg/mL (≈ 32 µM) against Proteus mirabilis 9921. The MIC in [9] was greater than 250 µg/mL; in [10], 250 µg/mL (≈ 513 µM); in assay [11], 15.6 µg/mL (≈ 32 µM); in assay [12], 31.3 µg/mL (≈ 64.2 µM); against Salmonella typhi 19430 it was 15.6 µg/mL (≈ 32 µM); in assay [13], greater than 250 µg/mL. Besides, the minimum inhibitory concentration (MIC) is greater than 250 µg/mL in assay [14]; greater than 250 µg/mL with Serratia rubidae 27593; 31.3 µg/mL (≈ 64.2 µM) with Shigella boydii 9207; 15.6 µg/mL (≈ 32 µM) with Shigella flexneri 12025; 62.5 µg/mL (≈ 128 µM) in the assay on Shigella sonnei 11060. The same compound had an ED50 in assay [15] (po, Example 6, mice) greater than 7.2 mg/kg. For the same compound, in assay [15] (oral, Example 6, mice), the “oral activity against the test organism” value is “lack of significant oral activity”.

Take `CCOc1ccc2ccccc2c1C(=O)N[C@@H]1C(=O)N2[C@@H]1SC(C)(C)[C@@H]2C(=O)O` [Nafcillin]: the ED50 in [15] (setting [16]) was found to be 3.12 mg/kg; in assay [15] (setting [17]), 3.9 mg/kg. The “Deaths / Total No. Treated” value in [15] (setting [18]) was 9/10 and 10/10; in assay [15] (setting [19]), 9/10 and 10/10; in assay [15] (setting [20]), 9/10 and 7/10; in assay [15] (setting [21]) it was 10/10 and 7/10; in assay [15] (setting [22]) it was 3/10 and 4/10; in [15] (setting [23]) it was 4/10. Further, the “Deaths / Total No. Treated” value was 3/10 and 4/10 in [15] (setting [24]); 4/10 in assay [15] (setting [25]). The CD50 amounted to 3.41 mg/kg in assay [15] (setting [26]) and 3.41 mg/kg in [15] (subcutaneous, 30 Days, single dose, mice, 43200 min).

For the compound `Cc1nnc(SCC2=C(C(=O)O)N3C(=O)[C@@H](NC(=O)Cn4cnnn4)[C@H]3SC2)s1` [Cefazolin], the values for the median effective dose (ED50) in assay [15] (setting [16]) and in assay [15] (setting [17]) were 6.41 mg/kg and 7.2 mg/kg, respectively. The “Deaths / Total No. Treated” value is 10/10 in assay [15] (setting [18]); 10/10 in [15] (setting [19]); 10/10 and 8/10 in assay [15] (setting [20]); 10/10 in assay [15] (setting [21]); 10/10 in [15] (setting [22]); 10/10 in assay [15] (setting [23]). Also, the “Deaths / Total No. Treated” value is given as 4/10 in assay [15] (setting [24]) and 5/10 in assay [15] (setting [25]). The compound also gave a CD50 in assay [15] (setting [26]) of 5.82 mg/kg.
